{"source": "patent US20180008579A1", "about": "“PHARMACEUTICAL COMPOSITION FOR PREVENTING OR TREATING CHRONIC MYELOID LEUKEMIA AND METHOD USING THE SAME” (MEDPACTO INC., priority 2015, published 2018)", "key": {"TT-CML affected mouse [1]": {"test_system": "TT-CML affected mouse", "assay": "Peripheral blood leukocyte number, spleen and cell lineage in drug-administered TT-CML affected mouse", "assay_type": "in vivo", "conditions": "TEW-7197 2.5 mg/kg/day every three days, oral", "from_the_text": "The number of leukocyte in the peripheral blood of the drug-administered TT-CML affected mouse is shown in FIG. 3A (n=5, NS: not significant), a photograph of the spleen thereof is shown in FIG. 3B (bar: 10 mm), and the weight of the spleen thereof is shown in FIG. 3C (n=3). Further, percentages (%) of T cell (detected using anti-CD4 antibody and anti-CD8 antibody), B cell (detected using anti-B220 antibody), and bone marrow cell (detected using anti-Macl antibody and anti-Gr-1 antibody) among the total BCR-ABL1-GFP^+ cells in the peripheral blood of the TEW-7197-administered TT-CML affected mouse are shown in FIG. 3D (n=3, NS: not significant)."}, "TT-CML affected mouse [2]": {"test_system": "TT-CML affected mouse", "assay": "Flow cytometry of GFP/BCR-ABL+ KLS+ and KLS- cells in TT-CML affected mouse", "assay_type": "in vivo", "conditions": "TEW-7197 2.5 mg/kg/day every three days, oral, 30 days, peripheral blood", "description": "GFP/BCR-ABL^+c-Kit^+Lineage^−Sca-1^+(KLS^+) cells (bold box) and c-Kit^+Lineage^−Sca-1^− (KLS^−) cells (dotted box) in the peripheral blood were analyzed by flow cytometry, and the results are shown in FIG. 4A."}, "[3]": {"test_system": "TKI-resistant T315I TT-CML affected mouse", "assay": "Flow cytometry of T315I BCR-ABL-GFP+ KLS+ and KLS- cells in TKI-resistant T315I TT-CML affected mouse", "assay_type": "in vivo", "conditions": "ponatinib 15 mg/kg/day, TEW-7197 2.5 mg/kg/day every three days, oral, 30 days; peripheral blood; FIG. 5C", "description": "T315I BCR-ABL-GFP^+KLS^+ cells (bold box) and KLS^− cells (dotted box) in the peripheral blood were analyzed by flow cytometry, and the results are shown in FIG. 5A."}, "[4]": {"test_system": "human CML-initiating cells", "assay": "Colony formation of human CML-initiating cells (CD34+CD38-Lin-) co-cultured with OP-9 stromal cells", "assay_type": "cell-based", "conditions": "cells of three CML patients, co-culture with OP-9, 3% oxygen; combination compared to single treatment of dasatinib; FIGS. 6A-6C", "description": "Bone marrow mononuclear cells (Allcells, Cat. No. 06-255, 06-620, and 147742, CA) of three patients with chronic CML were prepared. Bone marrow mononuclear cells were stained with anti-CD34(8G12) antibody (BD Biosciences), anti-CD38(HIT2) antibody (BD Biosciences), anti-CD3(SK7) antibody (BD Biosciences), anti-CD16(3G8) antibody (BD Biosciences), anti-CD19(SJ25C1) antibody (BD Biosciences), anti-CD20([…]) antibody (BD Biosciences), anti-CD14(MfP9) antibody (BD Biosciences), and anti-CD56(NCAM16.2) antibody (BD Biosciences). A mouse antibody cocktail recognizing CD3, CD16, CD19, CD20, CD14 and CD56 was used to identify Lineage^- (Lin^-) cells, and CD34^+CD38^-Lin^- cells were separated. […] A control group was prepared in the same manner, except that DMSO was used. Cells were harvested and washed with PBS, and then cultured in methyl cellulose (Stem cell technologies, GFM3434) to measure colony formation of human CML-initiating cells."}}, "data": [{"smiles": "Cc1cccc(-c2[nH]c(CNc3ccccc3F)nc2-c2ccc3ncnn3c2)n1", "note": "[TEW-7197, N-((4-([1,2,4]triazolo[1,5-a]pyridin-6-yl)-5-(6-methylpyridin-2-yl)-1H-imidazol-2-yl)methyl)-2-fluoroaniline]", "values": [{"measurement": "differentiation of bone marrow cells among the BCR-ABL1-GFP+ cells in peripheral blood", "setting": "TT-CML affected mouse [1]; FIG. 3D", "result": "did not affect differentiation of bone marrow cells"}, {"measurement": "number of leukocyte in the peripheral blood", "setting": "TT-CML affected mouse [1]; dasatinib 5 mg/kg/day, about 30 days, compared to vehicle, FIG. 3A", "result": "increased"}, {"measurement": "splenomegaly (spleen weight)", "setting": "TT-CML affected mouse [1]; dasatinib 5 mg/kg/day, about 30 days, compared to vehicle, FIGS. 3B, 3C", "result": "promoted"}, {"measurement": "percentage of KLS+ cells among BCR-ABL1-GFP+ CML cells", "setting": "TT-CML affected mouse [2]; FIG. 4C", "result": "remarkably decreased"}, {"measurement": "percentage of KLS- cells among BCR-ABL1-GFP+ CML cells", "setting": "TT-CML affected mouse [2]; dasatinib 5 mg/kg/day, FIG. 4B", "result": "remarkably decreased"}, {"measurement": "percentage of T315I BCR-ABL-GFP+KLS+ cells", "setting": "[3]", "result": "remarkably decreased"}, {"measurement": "colony formation of human CML-initiating cells", "setting": "[4]", "result": "significantly inhibited colony formation"}]}]}
